Results taken from US20160058738A1, “PHARMACEUTICAL COMPOSITION FOR PREVENTING OR TREATING OVARY GRANULOSA CELL TUMORS CONTAINING GLYCOGEN SYNTHASE KINASE-3 BETA INHIBITOR AS ACTIVE INGREDIENT, AND FUNCTIONAL HEALTH FOOD COMPOSITION” (CHUNG-ANG UNIVERSITY INDUSTRY-ACADEMIC COOPERATION …, priority 2013, published 2016).

Key:
[1] = test system: KGN cells stably expressing FOXL2; experiment: Efficacy on tumor induced by KGN cells in nude mice; type: in vivo, BALB/c-nu mice; settings: 2 mg/kg injected directly into tumor-induced region 10 times for two weeks, starting three weeks after cell injection
Excerpt: 6-week-old mature male BALB/c-nu mice were purchased from Central Laboratory Animal, Inc., and allowed for one week to be adapted to environments of the breeding facility and the laboratory in the Chung-Ang University Laboratory Animal Research Center to ensure that the mice had no general symptoms, prior to being used for the experiment. The animals were housed at a density of five mice per polycarbonate cage, and solid food for laboratory animals and water were freely provided. The environments for the breeding laboratory including a temperature, humidity, a ventilation cycle, a light/dark cycle, and illuminance were constantly maintained, and all the experiments were conducted in accordance with the regulation of the Chung-Ang University Animal Research Ethics Committee.
3×10^7 of KGN cells stably expressing FOXL2 were subcutaneously injected into each mouse to induce a tumor. Three weeks after the injection, the GSK3beta inhibitor (AR-A014418) was directly injected into a tumor-induced region at 2 mg/kg 10 times for two weeks and then a tumor size was measured, and the result is shown in FIG. 14.

[2] = test system: cells in which the FOXL2 protein was overexpressed; experiment: Experiment for cell growth rate; type: cell-based, human; settings: for cell growth rate of the C134W mutant: cells overexpressing FOXL2 C134W mutant
Protocol: After the cells in which the FOXL2 protein was overexpressed were treated with a GSK3beta inhibitor (AR-A014418), a cell growth rate according to time was measured, and the result is shown in FIG. 13.

[3] = test system: phosphorylation of the FOXL2 S33 residue; experiment: Western blotting of the phosphorylation of the FOXL2 S33 residue after kinase inhibitor treatment; type: cell-based, human; settings: 10 μM inhibitor, KGN cells overexpressing FOXL2 WT
Protocol: The cultured cells were harvested, and a protein was extracted from the cells using a Nonidet P-40 (NP-40) solution. For quantification of the extracted protein, a Bicinchoninic acid (BCA)™ protein assay was performed. The quantified protein was transferred to a polyvinylidene fluoride (PVDF) membrane by SDS-PAGE electrophoresis, and incubated with an antibody for each protein to be detected. Afterward, the proteins were detected using secondary antibodies and a ChemDoc system.
While the FOXL2 WT was overexpressed in the KGN cells, the cells were treated with 10 μM of the inhibitor of each kinase, cultured for 18 hours and sampled, and then a change in phosphorylation was measured by performing western blotting. Here, the change in phosphorylation was measured using an antibody specifically binding to a peptide consisting of an amino acid of SEQ. ID.
To confirm whether an inhibitory effect of GSK3beta on the FOXL2 S33 residue is a GSK3beta-specific effect, cells in which FOXL2 WT was overexpressed were treated with 10 μM each of AR-A014418 and TWS1119, which are two different GSK3beta inhibitors, sampled, and analyzed by western blotting. Here, AR-A014418 contains a compound represented by Formula 2.

FOXL2 protein = experiment: Experiment for protein stability (cyclohexamide chase, western blotting); type: cell-based, human; settings: FOXL2-overexpressing cells, then 10 μg cyclohexamide, sampled at 0, 6, 12, 24 hours
Protocol: The cultured cells were harvested, and a protein was extracted from the cells using a Nonidet P-40 (NP-40) solution. For quantification of the extracted protein, a Bicinchoninic acid (BCA)™ protein assay was performed. The quantified protein was transferred to a polyvinylidene fluoride (PVDF) membrane by SDS-PAGE electrophoresis, and incubated with an antibody for each protein to be detected. Afterward, the proteins were detected using secondary antibodies and a ChemDoc system. To confirm whether the effect of decreasing the cell viability by inducing the activity of a specific promoter such as TNFR1, FAS, Caspase8 and p21 induces regulation of FOXL2 protein stability by the phosphorylation of the FOXL2 S33 residue, cells in which a FOXL2 protein was overexpressed were treated with a GSK3beta inhibitor (SB 216763) and expressed, treated with 10 μg of cyclohexamide which is a protein synthesis inhibitor, and then sampled at 0, 6, 12, and 24 hours to perform western blotting, and the result is shown in FIG. 12.

SMILES | size of the tumor induced in the ovarian GCT cells [1] | size of the tumor induced in the ovarian GCT cells ([1]; listed as Formula 2) | cell growth rate ([2]; FOXL2-overexpressing cells, growth rate according to time) | cell growth rate of the C134W mutant [2] | cell growth rate of the C134W mutant ([2]; listed as Formula 2) | phosphorylation of the FOXL2 S33 residue [3] | phosphorylation of the FOXL2 S33 residue ([3]; listed as Formula 2) | FOXL2 protein stability (FOXL2 protein) | phosphorylation of the FOXL2 S33 residue ([3]; listed as Formula 1)
COc1ccc(CNC(=O)Nc2ncc([N+](=O)[O-])s2)cc1 [AR-A014418, N-[(4-Methoxyphenyl)Methyl]-N′-(5-nitro-thiazol-2-yl)urea] | remarkably decreased | decreased | decrease | remarkably decreased | decreased | reduced | decreased | – | –
Cn1cc(C2=C(c3ccc(Cl)cc3Cl)C(=O)NC2=O)c2ccccc21 [SB 216763, 3-(2,4-Dichlorophenyl)-4-(1-methyl-1H-indol-3-yl)-1H-pyrrole-2,5-dione] | decreased | – | – | decreased | – | reduced | – | increased | decreased
Nc1cccc(-c2cc3c(Oc4cccc(O)c4)ncnc3[nH]2)c1 [TWS1119] | – | – | – | – | – | reduced | – | – | –
